Source: article PMC3898838, “Design, Synthesis, and Biological Evaluation of an Allosteric Inhibitor of HSET that Targets Cancer Cells with Supernumerary Centrosomes” (Chemistry & Biology, 2013)

How the values were obtained:
[1] = biological target: T1, full-length, N-terminal, 6His-tagged human HSET (Homo sapiens, UniProt Q9BW19); assay: In vitro enzymatic ATPase assay (ADP-Glo), MT-stimulated activity; type: biochemical
T1 construct: The protocol was optimized for use with full-length, N-terminal, 6His-tagged HSET and KSP; made in house; host or cells: Sf9 insect cells (baculovirus, pFastBac1)
T1 sequence (Q9BW19 1-673): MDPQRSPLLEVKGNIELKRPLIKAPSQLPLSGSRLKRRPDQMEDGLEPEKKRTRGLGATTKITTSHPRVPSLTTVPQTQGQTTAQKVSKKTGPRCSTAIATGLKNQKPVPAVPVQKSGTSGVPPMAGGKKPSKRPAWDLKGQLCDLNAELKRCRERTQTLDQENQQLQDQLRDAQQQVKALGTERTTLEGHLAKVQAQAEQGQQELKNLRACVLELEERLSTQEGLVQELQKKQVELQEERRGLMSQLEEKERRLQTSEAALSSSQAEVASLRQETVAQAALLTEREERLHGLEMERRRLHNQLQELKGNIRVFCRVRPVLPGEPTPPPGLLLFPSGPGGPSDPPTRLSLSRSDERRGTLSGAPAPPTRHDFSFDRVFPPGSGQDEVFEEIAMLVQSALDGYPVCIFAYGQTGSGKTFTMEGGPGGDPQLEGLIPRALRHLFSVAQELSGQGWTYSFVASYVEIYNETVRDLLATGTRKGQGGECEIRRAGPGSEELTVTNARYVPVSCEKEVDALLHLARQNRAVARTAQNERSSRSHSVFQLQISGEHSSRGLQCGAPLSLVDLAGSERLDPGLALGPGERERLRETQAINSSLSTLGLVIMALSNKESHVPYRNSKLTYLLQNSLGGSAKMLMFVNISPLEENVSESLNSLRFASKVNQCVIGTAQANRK
Description: The similarity decreases to 56% in the loop 5 binding cleft alone (residues 422–432; Figure 1A). Given the high degree of similarity between the proteins, and the potential for selective binding in the loop 5 cleft, the chemogenomics principle that similar proteins bind similar ligands was applied to HSET and KSP, and an in silico model for HSET binding was developed based on nearly 500 existing inhibitors of KSP in the ChEMBL database (see Experimental Procedures for details; [Klabunde, 2007]). Using the model parameters, we selected 200 compounds (in silico) from 20 million possibilities and further triaged them into 50 ligands that scored highest in the bioactivity model. We acquired and tested these ligands for in vitro activity using an ADP-Glo enzymatic assay (see Experimental Procedures for details; Figure 1B).
The protocol was optimized for use with full-length, N-terminal, 6His-tagged HSET and KSP, and measured the MT-stimulated activity of the proteins. Inhibition of the […] of HSET/KSP was observed spectrophotometrically by coupling the hydrolysis of ATP to oxidation of NADH via pyruvate kinase/lactate dehydrogenase reactions. The assay was initiated by […] an assay mixture containing the following components (final concentration): 6 nM protein, 0.07 mg/ml MTs (University Biologicals), […], 2 mM ATP, 2.7 mM MgCI, 1 mM phospho(enol)-pyruvate, 0.2 mM NADH, 50 μg/ml lactate dehydrogenase, 100 μg/ml pyruvate kinase, and various concentrations of inhibitor all in 50 mM Na PIPES (pH 6.8) at 37°C. The ADP-Glo detection assay (Promega) was performed as described in the manufacturer’s instructions. All compound additions were performed using a multidrop BioMek Nxp (Beckman Coulter). Plates were read using a Pherastar microplate reader (BMG Labtech).

HeLa cells = assay: Time-lapse video microscopy, mitotic duration, arrest and exit; type: cell-based, human; details: 200 μM CW069, 100 μM monastrol
Description: HSET is known to antagonize the activity of the related kinesin, KSP, during spindle formation ([Mountain et al., 1999]). Therefore, we used time-lapse video microscopy to investigate whether CW069-treated cells transit mitosis with normal kinetics, and whether the characteristic mitotic arrest induced by inhibition of KSP ([Mayer et al., 1999]) could be suppressed by cotreatment with CW069. To this end, HeLa cells were treated with either DMSO control (0.2%), 200 μM CW069, 100 μM monastrol, or CW069+monastrol for 60 min before being imaged every 5 min for a further 360 min. Mitotic duration (MD) was defined as the period of time between when the cells began to round up and the onset of anaphase. No statistical difference was recorded between control cells and cells treated with 200 μM CW069 (MD 55 ± 7 and 53 ± 6 min, respectively, Figures 6A, 6B, and S7). […] This effect was reversed to a large extent by cotreatment of CW069 with monastrol. […] This is consistent with observations previously reported for KSP-depleted cells ([Mountain et al., 1999]). […] Cells were synchronized in G2-M by incubation at 37°C and 5% CO2 for 24 hr with 9 μM of the CDK1 inhibitor RO-3306 (Merck). Cells were released by removal of the RO-3306 and four washings of 10 min each, at 37°C, with prewarmed culture media + 10% FBS. N1E-115 cells were transfected with siRNA (Supplemental Experimental Procedures) and imaged from 6 hr after transfection. Some RO-3306-synchronized cells were released with 200 μM CW069, 100 μM monastrol, or 0.2% DMSO, and imaging started immediately or 1 hr after treatment. Imaging was carried out for 24 hr, or for 4 hr in the case of the CW069/monastrol cotreatment. Imaging was conducted every 5 min in a humidified chamber with 37°C and 5% CO2, using a Nikon Eclipse TE2000-E microscope, and analyzed with NIS-Elements software (Nikon, Tokyo, Japan). The morphology of cells in mitosis and the mitotic fate (bipolar division, multipolar division, or cell death) were analyzed.

[2] = tested on: primary adult human bone marrow cells; assay: Colony-formation (CFU-GM) assay; type: cell-based; details: 85 μM, 100 μM, 150 μM
[3] = >200 cells that entered mitosis >60 min after treatment

- IC50 ([1]; concentrations up to 250 μM, mean ± SD): 75 ± 20 µM
- selectivity for HSET over KSP ([1]; from IC50 values, HSET vs KSP): ~4 fold
- clonogenic capacity [2]: did not reduce the clonogenic capacity
Compound: O=C(O)c1cc(I)ccc1NC(=O)[C@H](Cc1ccccc1)NCc1ccccc1 [CW069]
- Mitotic Arrest (%) (HeLa cells; [3]): 4%
- Mitotic Exit (%) (HeLa cells; [3]): 96%
- Mitotic duration (MD) (HeLa cells; rounding up to anaphase onset, cells transiting mitosis): 53 ± 6 min
